Assay results: PMC4397911 (Bioorganic & medicinal chemistry letters, 2013)

Assays:
[1] = molecular target: NA from Virus H5N1 (soluble viral NA, N1) (Influenza A virus, UniProt Q6DPL2); assay: biochemical; settings: IC50 inhibition of soluble NA from Virus H5N1
[2] = molecular target: NA from Virus H3N2 (soluble viral NA, N2) (Influenza A virus, UniProt Q91MA2); assay: biochemical; settings: IC50 inhibition of soluble NA from Virus H3N2
NA from Virus H3N2 (soluble viral NA, N2), sequence (Q91MA2 31-469 limits assumed): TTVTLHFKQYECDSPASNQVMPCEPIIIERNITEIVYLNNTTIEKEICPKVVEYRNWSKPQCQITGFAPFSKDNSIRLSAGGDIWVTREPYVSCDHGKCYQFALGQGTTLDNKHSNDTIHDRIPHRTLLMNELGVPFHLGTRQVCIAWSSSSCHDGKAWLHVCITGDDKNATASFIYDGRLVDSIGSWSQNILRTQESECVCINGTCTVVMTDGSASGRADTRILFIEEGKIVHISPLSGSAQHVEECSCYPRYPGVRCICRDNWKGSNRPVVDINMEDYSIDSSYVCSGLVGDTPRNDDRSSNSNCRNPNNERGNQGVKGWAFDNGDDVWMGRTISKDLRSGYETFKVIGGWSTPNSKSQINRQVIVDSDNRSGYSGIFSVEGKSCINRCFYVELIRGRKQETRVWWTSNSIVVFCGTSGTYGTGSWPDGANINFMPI

NA from Virus H5N1 (soluble viral NA, N1), sequence (Q6DPL2 35-449 limits assumed): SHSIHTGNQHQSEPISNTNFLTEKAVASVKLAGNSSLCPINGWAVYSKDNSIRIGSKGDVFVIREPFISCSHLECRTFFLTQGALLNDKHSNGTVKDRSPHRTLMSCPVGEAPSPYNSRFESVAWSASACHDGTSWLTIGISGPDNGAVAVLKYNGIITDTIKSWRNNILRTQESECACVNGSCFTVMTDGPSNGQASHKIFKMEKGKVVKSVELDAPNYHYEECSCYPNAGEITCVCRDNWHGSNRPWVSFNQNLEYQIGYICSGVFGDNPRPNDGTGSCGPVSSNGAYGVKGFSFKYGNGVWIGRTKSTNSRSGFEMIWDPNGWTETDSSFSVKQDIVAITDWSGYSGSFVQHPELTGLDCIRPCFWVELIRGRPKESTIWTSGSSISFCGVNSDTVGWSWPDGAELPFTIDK

| Structure (SMILES) | IC50 [1] [µM] | IC50 [2] [µM] |
| --- | --- | --- |
| CC(=O)N[C@H]1[C@H]([C@H](O)[C@H](O)CO)OC(SCCOCCOCCOCCOCCOCCSC2(C(=O)O)C[C@H](N)[C@@H](NC(C)=O)[C@H]([C@H](O)[C@H](O)CO)O2)(C(=O)O)C[C@@H]1N (stereo partly shown) [HexaEG-SA] | 0.57 ± 0.06 | 11 ± 2 |
| CC(=O)N[C@H]1[C@H]([C@H](O)[C@H](O)CO)OC(SCCOCCOCCOCCOCCSC2(C(=O)O)C[C@H](N)[C@@H](NC(C)=O)[C@H]([C@H](O)[C@H](O)CO)O2)(C(=O)O)C[C@@H]1N (stereo partly shown) [PentaEG-SA] | 1.1 ± 0.1 | 10 ± 2 |
| CC(=O)N[C@H]1[C@H]([C@H](O)[C@H](O)CO)OC(SCCCCCCS)(C(=O)O)C[C@@H]1N (stereo partly shown) [SA] | 60 to 180 | 60 to 180 |
| CC(=O)N[C@H]1[C@H]([C@H](O)[C@H](O)CO)OC(SCCCCCCS)(C(=O)O)C[C@@H]1NC(=N)N (stereo partly shown) [SG] | 0.1 ± 0.02 |  |
